According to paper PMC7997640, “Potential anti-COVID-19 agents, cepharanthine and nelfinavir, and their usage for combination treatment” (iScience, 2021):
Like-named read-outs stand apart in the source and are kept apart here.

Legend:
SARS-CoV-2 [1] = assay: Chemical screening of 306 approved drugs by cytopathic effect assay; type: cell-based
SARS-CoV-2 [2] = assay: Viral N protein immunofluorescence in Calu-3 cells; type: cell-based
[3] = patients, 500 mg NFV orally; ref Markowitz et al., 1998; read-out: serum Cmax; cited from earlier work
SARS-CoV-2 main protease = SARS-CoV-2 main protease (Severe acute respiratory syndrome coronavirus 2, UniProt P0DTD1); assay: biochemical
SARS-CoV-2 [4] = assay: microbe, parasite or virus in culture; type: cell-based
SARS-CoV-2 [5] = type: cell-based; conditions: VeroE6/TMPRSS2, 48 hr
SARS-CoV-2 [6] = type: cell-based
SARS-CoV-2 [7] = tested on: SARS-CoV-2
clinical = conditions: human, po, 500 mg
in vitro = conditions: African green monkey
SARS-CoV-2 [8] = assay: microbe, parasite or virus in culture; conditions: for IC90: read-out: SARS-CoV-2 RNA IC90
[9] = expected in human lung
SARS-CoV-2 [10] = type: cell-based; remark: listed apart in the source
SARS-CoV = conditions: ref Liu et al., 2005, Wu et al., 2004, Yamamoto et al.; cited from earlier work
SARS-CoV-2 [11] = assay: Virus-cell binding assay at 4°C; type: cell-based
[12] = Severe acute respiratory syndrome coronavirus 2, read-out: IC50 (Hill function fit)
[13] = secreted viral RNA 24 hr, RDV 15 μM, CLQ 15 μM, CEP 8.2 μM, NFV 4 μM
[14] = Table S1, Single-drug treatment
[15] = Severe acute respiratory syndrome coronavirus 2, VeroE6/TMPRSS2, 24 h, read-out: SARS-CoV-2 RNA IC50
[16] = Severe acute respiratory syndrome coronavirus 2, VeroE6/TMPRSS2, 24 h
[17] = VeroE6/TMPRSS2, 24 hr, LPV 16 μM, CLQ 16 μM, RDV 20 μM, CEP 8 μM, NFV 4 μM

Row | Compound | screening outcome (hit = cell survival more than 20-fold of the control) (SARS-CoV-2 [1]) | virus-induced cytopathicity (SARS-CoV-2 [5]) | m, slope of the dose-response curve (Hill coefficient) (SARS-CoV-2 [7]; [14]) | CC50 (in vitro) | IC50 (SARS-CoV-2 [8]; [15]) | IC90 (SARS-CoV-2 [8]; [16]) | IC50 (SARS-CoV-2 [8]; [12]) | N protein expression (SARS-CoV-2 [10]; [17]) | antiviral activity on viral RNA (SARS-CoV-2 [7]) | also measured
1 | CCOC(=O)O[C@]1(C(=O)OCCl)CC[C@H]2[C@@H]3CCC4=CC(=O)C=C[C@]4(C)[C@H]3[C@@H](O)C[C@@]21C [Loteprednol] | identified as hits |  |  |  |  |  |  |  |  | 
2 | Cc1c(O)cccc1C(=O)N[C@@H](CSc1ccccc1)[C@H](O)CN1C[C@H]2CCCC[C@H]2C[C@H]1C(=O)NC(C)(C)C [NFV, nelfinavir] | identified as hits | greatest anti-cytopathic activity | 5.079 | > 64 µM | 770 nM | 1.18 µM | 765 nM | significantly reduced N protein expression |  | SARS-CoV-2 proliferation in Calu-3 cells (N protein) (SARS-CoV-2 [2]): inhibit SARS-CoV-2 proliferation; Cmax [3]: 6.9 µM; IC50 (SARS-CoV-2 main protease): 37 µM; IC50 (SARS-CoV-2 [4]; [12]): 1320 nM; m, slope of the dose-response curve (Hill coefficient) (SARS-CoV-2 [4]; Table S1, Combination treatment experiment): 4.043; viral RNA, % of untreated control (SARS-CoV-2 [4]; […], CEP 3.20 μM, NFV 2.24 μM, alone or combined): 5.8%; step of life cycle inhibited (time-of-addition) (SARS-CoV-2 [6]; [13]): clearly inhibited the post-entry process; viral RNA levels, % of the untreated control infections (SARS-CoV-2 [7]): 0.001–0.01%; window (CC50/IC50) (SARS-CoV-2 [7]): > 70 fold; Cmax (clinical): 9.32 µM; Degradation rate k [9]: 4.89 day⁻¹; replication of SARS-CoV (SARS-CoV): inhibit the replication
3 | Cc1cccc(C)c1OCC(=O)N[C@@H](Cc1ccccc1)[C@@H](O)C[C@H](Cc1ccccc1)NC(=O)[C@H](C(C)C)N1CCCNC1=O [LPV, lopinavir] | identified as hits | reduced virus-induced cytopathicity | 3.852 | 54.9 µM | 3070 nM | 5.43 µM | 3610 nM | significantly reduced N protein expression | inhibited viral RNA | 
4 | heparin |  |  |  |  |  |  |  |  |  | SARS-CoV-2 binding to cells (cell-bound viral RNA) (SARS-CoV-2 [11]): significantly blocked SARS-CoV-2 particle attachment
5 | NC(=O)c1nc(F)c[nH]c1=O [FPV, favipiravir] |  |  |  | > 64 µM | > 64000 nM | > 64 µM |  |  | negligible antiviral activity | 
6 | CO[C@H]1C[C@@H]2CC[C@@H](C)[C@@](O)(O2)C(=O)C(=O)N2CCCC[C@H]2C(=O)O[C@H]([C@H](C)C[C@@H]2CC[C@@H](O)[C@H](OC)C2)CC(=O)[C@H](C)/C=C(\C)[C@@H](O)[C@@H](OC)C(=O)[C@H](C)C[C@H](C)/C=C/C=C/C=C/1C [Rapamycin] | identified as hits |  |  |  |  |  |  |  |  | 
7 | CCC(CC)COC(=O)[C@H](C)N[P@](=O)(OC[C@H]1O[C@@](C#N)(c2ccc3c(N)ncnn23)[C@H](O)[C@@H]1O)Oc1ccccc1 [RDV, Remdesivir] |  |  |  | > 64 µM | 1580 nM | 3.24 µM | 1580 nM |  | inhibited viral RNA | step of life cycle inhibited (time-of-addition) (SARS-CoV-2 [6]): negligible effect on virus entry; m, slope of the dose-response curve (Hill coefficient) (SARS-CoV-2 [7]): 3.048; N protein expression (SARS-CoV-2 [10]): significantly reduced N protein expression
8 | CCN(CC)CCCC(C)Nc1ccnc2cc(Cl)ccc12 (stereo not drawn) [CLQ, chloroquine] |  | reduced virus-induced cytopathicity | 1.984 | > 64 µM | 1310 nM | 3.97 µM | 1310 nM | significantly reduced N protein expression | inhibited viral RNA | step of life cycle inhibited (time-of-addition) (SARS-CoV-2 [6]; [13]): activity in the early stages of infection; SARS-CoV-2 binding to cells (cell-bound viral RNA) (SARS-CoV-2 [11]): negligible effect
